Experimental data: paper PMC6259833, “Antioxidant Bibenzyl Derivatives from Notholaena nivea Desv” (Molecules, 2011)
Entries after “also recorded” stand apart in the source; their conditions may differ.

Experiments:
[1] = Coupled oxidation of β-carotene and linoleic acid (linoleic acid autoxidation assay); conditions: 15 µg/mL; for Linoleic acid autoxidation inhibition (AA), 1 h: t = 60 min; for Linoleic acid autoxidation inhibition (AA), 1 h / Linoleic acid autoxidation inhibition (AA), 2 h: β-carotene bleaching, 50 °C; for Linoleic acid autoxidation inhibition (AA), 2 h: t = 120 min; for antioxidant activity in β-carotene/linoleic acid model (in words): compared with BHT standard
Description: Heat-induced oxidation of an aqueous emulsion system of β-carotene and linoleic acid was measured by the method described by Pratt (1992). A quantity of linoleic acid (20 mg) and Tween 20 (200 mg) were placed in a flask, and a solution of β-carotene (2 mg) in CHCl3 (10 mL) was added. After removal of CHCl3, oxygenated distilled water (50 mL) was added. Aliquots of each compound (200 µL), dissolved in ethanol to a 15 µg/mL solution, were added to each flask with shaking. Samples without test compounds were used as blanks and sample with 2,6 di-tert-butyl-4-methylphenol (BHT) was used as a control substance. Samples were subjected to the oxidation, by placing them in an oven at 50 °C for 3 hours. The absorbance was red at 470 nm at regular intervals to monitor the rate of bleaching of ß-carotene. The antioxidant activities was expressed as AA, calculated with the equation Inhibitory ratio (AA) = 100 [1−A0−At]/ A00−A0t; where A0 was the absorbance at the beginning of the incubation, with compound; At was the absorbance at the time t, with compound; A00 was the absorbance at beginning of the incubation, without compound; A0t the absorbance at the time t, without compound. Each experiment was performed in triplicate.

[2] = TEAC free radical scavenging assay (ABTS radical cation); conditions: for TEAC: Trolox concentration with inhibition equivalent to a 1 mM solution of the compound, ABTS+., 734 nm, mean ± SD, triplicate
Description: The TEAC value is based on the ability of the antioxidant to scavenge the ABTS^+.. ABTS^+. cation radical was produced by the reaction between ABTS (7 mM) in water and potassium persulfate (2.45 mM), kept in the dark at room temperature for 12 hours. ABTS^+. is a blue-green cromogen with a characteristic absorption at 734 nm. The ABTS^+. solution was diluted with PBS, pH 7.4, to an absorbance of 0.70 at 734 nm and equilibrated at 30 °C.
Samples were diluted with methanol to have 0.3 mM, 0.5 mM, 1 mM, 1.5 mM, 2 mM solutions. The reaction was enhanced by the addition of diluted ABTS (1 mL) to 10 µL of each solution of sample or Trolox (standard), or […] of methanol (blank). The determination was repeated three times for each sample solution. The percentage inhibition of absorbance at 734 nm was calculated for each concentration in function of the blank’s absorbance. The percentage inhibition was plotted as a function of compound or standard concentration. The antioxidant activities of compounds 1-6 are expressed as TEAC, Trolox equivalent antioxidant activity. TEAC value is defined as the concentration of standard Trolox solution with equivalent percentage inhibition to a 1 mM concentration solution of the compound after investigation.

xanthine oxidase (XOD) = biological target: T1, xanthine oxidase (XOD) (Bos taurus, UniProt P80457); assay: Xanthine oxidase inhibition assay (uric acid formation); assay type: biochemical; conditions: for IC50: uric acid from xanthine, 295 nm, mean ± SD
T1 construct: purchased Sigma Aldrich (Gillingam, Dorset, U.K.)
Description: Xanthine oxidase inhibition activity was evaluated by the spectrophotometric measurement of the formation of uric acid by xanthine. A 100 µM solution of xanthine in 0.1 M phosphate buffer pH 7.8 with 0.04 units/mL of xanthine oxidase was incubated for 10 min at room temperature and read at 295 nm against a blank sample. Various concentrations of testing compounds were added to samples before the enzyme has been instilled and their effect on the generation of uric acid was used to calculate regression lines and IC50 values.

Caco-2 cells = assay: H2O2-induced cytotoxicity in differentiated Caco-2 cells, neutral red assay; assay type: cell-based, human; conditions: for viability at 250 µM: compound 250 μmol/L; for protection against H2O2-induced toxicity (in words): compound 250 µmol/L, pretreatment before 10 mmol/L H2O2
Description: The Caco-2 cells strain was obtained from Prof. A. Leone research group (Dipartimento di Scienze Farmaceutiche, Sezione Biologica, Università degli Studi di Salerno, Fisciano, Italy) and used between passages 75 to 90. The cells were routinely maintained in DMEM, containing 200 mL/L FCS, 10 mL/L of 100× nonessential aminoacids, 2 mmol/L L-glutamine, 5 × 10^4 IU/L penicillin, 50 mg/L streptomycin at 37 °C in a 5% CO2 atmosphere at 90-100% relative humidity. Cell were grown in 10-cm petri dishes. For experiments, cells were seeded at a density of 90,000 cells/cm^2 in a Transwell insert, and the medium (0.1 mL in the insert and 0.8 mL in the well) was changed every 48 h. Fourteen to sixteen days after confluence, the integrity of the monolayer of differentiated cells was monitored according to the method of Hildago et al..
An iron-free medium (EMEM) was used for the oxidative stress induction experiments. The oxidative stress was induced in the apical compartment of the transwell insert by addition of H2O2. After 20 h of incubation, several oxidative stress markers were measured. To assay the capacity of these compounds to protect Caco-2 cells from ROM-mediated oxidative injury, cells were preincubated for 4 h with compounds, which had been added to the apical side of monolayer. After the end of preincubation time, the medium was changed before the addition of the of the oxidative stress-inducing agents.
We assessed the cytotoxicity of ROM on Caco-2 by the viability test of neutral red uptake, performed according to the procedure of Fautz et al.. After oxidative stress induction the medium in the insert was removed and replaced with 0.1 mL of fresh medium containing […] neutral red. At the end of 3 h of incubation, the medium was removed and cells were washed twice with PBS; finally the incorporated neutral red was released from cells by incubation for 15 min at room temperature in the presence of 1 mL of cell lysis buffer containing acetic acid (1%, v/v) and ethanol (50% v/v). To measure the dye taken up, the cell lysis products were centrifuged and supernatants spectrophotometrically measured at 540 nm.

[3] = Superoxide anion enzymatic generation assay (xanthine/xanthine oxidase, NBT reduction); assay type: biochemical; conditions: xanthine/XOD system, 560 nm, mean ± SD, read-out: Superoxide anion scavenging activity IC50
Description: Superoxide anion was generated in an enzymatic system by preparing a mixture of xanthine and xanthine oxidase. The reaction mixture included 0.1 mM EDTA, 50 µg/mL bovine serum albumine (BSA), 25 µM nitroblue tetrazolium, 0.1 mM xanthine and 3.3 × 10^−3 units xanthine oxidase (XOD) in 40 mM sodium carbonate buffer (pH 10.2) in a final volume of 3 mL. After incubation at 25 °C with increasing concentrations of samples, the absorbance of formazan produced was determined at 560 nm.
The inhibitory effect of samples on the generation of superoxide anion were estimated by the equation: Inhibitory ratio = (A0−A1) × 100/ A0; where A0 absorbance with no addition of sample and A1 absorbance with addition of sample. Inhibitory ratio for each sample was plotted as a function of the concentration, then was calculated the IC50 value, with the statistical method of linear regression.

[4] = Homo sapiens, Caco-2, 4 h preincubation, then 10 mmol/L H2O2 for 20 h, neutral red, read-out: cell viability

T1 sequence (P80457 2-1332 limits assumed): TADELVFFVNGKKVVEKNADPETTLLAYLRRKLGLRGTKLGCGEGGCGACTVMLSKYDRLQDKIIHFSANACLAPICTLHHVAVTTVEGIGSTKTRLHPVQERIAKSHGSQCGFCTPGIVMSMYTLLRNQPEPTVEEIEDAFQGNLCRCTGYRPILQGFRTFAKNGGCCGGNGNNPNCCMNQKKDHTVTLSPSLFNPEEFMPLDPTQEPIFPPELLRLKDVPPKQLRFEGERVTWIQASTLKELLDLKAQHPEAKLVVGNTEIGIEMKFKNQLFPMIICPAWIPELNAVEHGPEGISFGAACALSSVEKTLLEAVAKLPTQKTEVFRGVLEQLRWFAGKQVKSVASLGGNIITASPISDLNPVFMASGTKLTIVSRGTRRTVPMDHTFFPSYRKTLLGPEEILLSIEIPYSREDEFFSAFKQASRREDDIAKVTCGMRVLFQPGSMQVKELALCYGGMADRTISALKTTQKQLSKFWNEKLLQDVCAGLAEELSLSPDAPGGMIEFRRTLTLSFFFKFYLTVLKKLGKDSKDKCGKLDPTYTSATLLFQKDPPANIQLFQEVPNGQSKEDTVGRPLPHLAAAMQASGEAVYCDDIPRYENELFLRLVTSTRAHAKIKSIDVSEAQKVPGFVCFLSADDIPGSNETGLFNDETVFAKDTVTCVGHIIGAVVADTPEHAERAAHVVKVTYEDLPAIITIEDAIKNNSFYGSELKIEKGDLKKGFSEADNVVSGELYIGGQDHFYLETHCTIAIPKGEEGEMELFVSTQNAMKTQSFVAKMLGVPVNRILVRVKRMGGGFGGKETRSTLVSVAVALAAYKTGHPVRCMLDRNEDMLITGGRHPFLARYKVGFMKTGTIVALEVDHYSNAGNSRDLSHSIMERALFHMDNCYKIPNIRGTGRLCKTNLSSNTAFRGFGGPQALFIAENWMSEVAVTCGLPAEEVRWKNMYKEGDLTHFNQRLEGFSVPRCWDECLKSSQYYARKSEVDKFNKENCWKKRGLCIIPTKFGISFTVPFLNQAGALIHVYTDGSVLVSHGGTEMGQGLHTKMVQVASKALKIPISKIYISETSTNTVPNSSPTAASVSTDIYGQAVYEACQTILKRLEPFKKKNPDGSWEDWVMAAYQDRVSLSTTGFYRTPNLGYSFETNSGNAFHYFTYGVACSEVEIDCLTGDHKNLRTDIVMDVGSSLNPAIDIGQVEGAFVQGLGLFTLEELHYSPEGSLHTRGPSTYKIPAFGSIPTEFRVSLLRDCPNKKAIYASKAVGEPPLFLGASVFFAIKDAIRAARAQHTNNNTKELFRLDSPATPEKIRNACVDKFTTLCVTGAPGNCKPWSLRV

| SMILES | Linoleic acid autoxidation inhibition (AA), 1 h [1] | Linoleic acid autoxidation inhibition (AA), 2 h [1] | antioxidant activity in β-carotene/linoleic acid model (in words) [1] | radical scavenging activity in ABTS/TEAC test (in words) [2] | TEAC [2] | activity as direct inhibitor of xanthine oxidase (in words) (xanthine oxidase (XOD)) | IC50 (xanthine oxidase (XOD)) | viability at 250 µM (Caco-2 cells; [4]) | viability at 500 µM (Caco-2 cells; Homo sapiens, Caco-2, compound 500 μmol/L, 4 h preincubation, then 10 mmol/L H2O2 for 20 h, neutral red, read-out: cell viability) | protection against H2O2-induced toxicity (in words) (Caco-2 cells) | protection against H2O2-induced alterations (in words) (Caco-2 cells; compound 500 µmol/L preincubation) | IC50 [3] | viability at 125 µM (Caco-2 cells; Homo sapiens, Caco-2, compound 125 μmol/L, 4 h preincubation, then 10 mmol/L H2O2 for 20 h, neutral red, read-out: cell viability) | loss of cell viability (Caco-2 cells; 20 h of treatment with 10 mmol/L H2O2) | cell viability (Caco-2 cells; H2O2 10 mmol/L alone, 20 h, neutral red) |
| --- | --- | --- | --- | --- | --- | --- | --- | --- | --- | --- | --- | --- | --- | --- | --- |
| Cc1cc(C(C)(C)C)c(O)c(C(C)(C)C)c1 [BHT, 2,6 di-tert-butyl-4-methylphenol, reference compound] | 60.00% | 51.07% | – | – | – | – | – | – | – | – | – | – | – | – | – |
| COc1cc(O)c(C(=O)O)c(CCc2ccc(O)cc2)c1 [Compound 1, 5,12-dihydroxy-3-methoxy-dibenzyl-6-carboxylic acid] | 32.60% | 11.70% | highest activity after 1h; also recorded: moderate activity | most active | 1.98 ± 0.05 mM | no activity | > 100 µM | 80% | 88% | inactive | prevented | 96.93 ± 0.42 µM | – | – | – |
| COc1cc(CCc2ccc(O)cc2)c(C(=O)O)c(OC(C)=O)c1 [Compound 2, 5-acetyloxy-12-hydroxy-3-methoxybibenzyl-6-carboxylic acid] | 28.51% | 19.16% | moderate activity | – | 1.38 ± 0.01 mM | moderate activity | 71.39 ± 0.45 µM | – | – | – | – | 81.11 ± 0.68 µM | – | – | – |
| COc1cc(CCc2ccc(O)cc2)cc(Oc2ccc(CCc3cc(OC)cc(O)c3C(=O)O)cc2)c1 [Compound 3, 12-O-[3’-(5’-methoxy-12’-hydroxy)-bibenzyl]-5-hydroxy-3-methoxybibenzyl-6-carboxylic acid] | 0% | 0% | no activity | – | 1.22 ± 0.02 mM | no activity | > 100 µM | – | – | – | – | 78.2 ± 1.15 µM | – | – | – |
| COc1cc(CCc2ccc(Oc3cc(CCc4ccc(Oc5cc(CCc6ccc(O)cc6)c(C(=O)O)c(OC)c5)cc4)c(C(=O)O)c(OC)c3)cc2)c(C(=O)O)c(OC)c1 [Compound 4, 3-O-{12’-[12’’-O-(3’’,5’’-dimethoxy-6’’-carboxybibenzyl)]-5’-methoxy-6’-carboxybibenzyl}-12-hydroxy-5-methoxybibenzyl-6-carboxylic acid] | 0% | 0% | no activity | – | 1.5 ± 0.03 mM | no activity | > 100 µM | – | – | – | – | 81.3 ± 2.01 µM | – | – | – |
| COc1ccc(CCc2cc(OC)cc(O)c2C(=O)O)cc1 [Compound 5, 5-hydroxy-3,12-dimethoxy-6-carboxybibenzyl] | 26.56% | 19.72% | moderate activity | – | 1.21 ± 0.01 mM | moderate activity | 64 ± 2.13 µM | – | – | – | – | 58.4 ± 1.18 µM | – | – | – |
| COc1cc(O)cc(CCc2ccc(O)cc2)c1 [Compound 6, 3,12-dihydroxy-5-methoxybibenzyl] | 29.35% | 7.31% | moderate activity | most active compound | 2.55 ± 0.02 mM | no activity | > 100 µM | 98% | – | no decrease in cell viability; also recorded: prevent H2O2-induced cytotoxicity; also recorded: prevented | – | 83.3 ± 1.06 µM | 90% | – | – |
| OO [Compound H2O2, hydrogen peroxide, reference compound] | – | – | – | – | – | – | – | – | – | – | – | – | – | about 25% | 75% |
| Oc1ccc(CCc2cc(O)cc(O)c2)cc1 [Dihydroresveratrol, reference compound] | 16.11% | 20.12% | lower activity | – | 2.3 ± 0.07 mM | – | > 100 µM | – | – | – | – | 60.9 ± 1.12 µM | – | – | – |
| O=c1c(O)c(-c2ccc(O)c(O)c2)oc2cc(O)cc(O)c12 [Quercetin, quercetin, reference compound] | – | – | – | – | 2.91 ± 0.02 mM | – | – | – | – | – | – | – | – | – | – |
